How the values were obtained:
MMP-9 = molecular target: T1, MMP-9 (Homo sapiens, UniProt P14780); experiment: MMP-9 inhibitor screening assay kit (Abcam #ab139448); format: biochemical; details: NSGM 100 µM; read-out: MMP-9 inhibition in screen
T1 construct: purchased Abcam (Cambridge, UK) ab139448
Method: Screening of sulfated benzofurans and quinazolinones (100 µM, final) against MMP-9 was performed using a commercially available assay kit (Abcam catalog #ab139448) following manufacturer’s protocol. All experiments were performed at least twice in duplicates.

MMP-8 = molecular target: T2, MMP-8 (Homo sapiens, UniProt P22894); experiment: Direct inhibition of MMP-8, fluorogenic substrate hydrolysis assay; format: biochemical; details: for IC50 / ΔY (efficacy of MMP-8 inhibition): Tris-buffered saline, 10 mM CaCl2, 1 µM ZnCl2, pH 7.5, 37 °C; for IC50: error ± 1 SD, read-out: IC50 (potency of MMP-8 inhibition); for ΔY (efficacy of MMP-8 inhibition): from dose-response regression
T2 construct: purchased R&D Systems (Minneapolis, MN, USA)
T2 sequence (P22894 101-467): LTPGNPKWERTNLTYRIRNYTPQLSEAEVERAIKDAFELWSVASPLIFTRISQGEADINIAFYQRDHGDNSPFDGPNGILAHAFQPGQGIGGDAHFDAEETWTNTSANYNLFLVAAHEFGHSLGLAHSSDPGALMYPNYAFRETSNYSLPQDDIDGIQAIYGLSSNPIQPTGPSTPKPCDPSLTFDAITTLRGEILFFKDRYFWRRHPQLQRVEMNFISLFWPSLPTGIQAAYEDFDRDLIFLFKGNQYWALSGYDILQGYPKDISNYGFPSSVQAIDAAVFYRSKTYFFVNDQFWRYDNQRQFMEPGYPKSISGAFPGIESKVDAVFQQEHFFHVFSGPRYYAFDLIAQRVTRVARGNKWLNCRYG
Method: NSGMs were screened for the inhibition of MMP-8 using a fluorogenic substrate assay, as described earlier. Briefly, 100 µg/mL pro-MMP-8 was activated by incubating with 1mM p-aminomercuric acetate at 37 °C for 1 hr. Activated MMP-8 (10 nM, final) was then incubated with NSGMs (100 µM, final) in Tris-buffered saline containing 10 mM CaCl2,1 µM ZnCl2, pH 7.5 for 10 min at 37 °C. Residual MMP-8 activity was measured by adding the fluorogenic substrate (DNP-Pro-Leu-Ala- Tyr-Trp-Ala-Arg, 20 µM, final) and monitoring initial linear rate of increase in fluorescence. IC50s were calculated using the following equation, Y=Y0+YM−Y0/1+10^(log[I]0−logIC50)×HS . Y is the ratio of residual enzyme activity in the presence of NSGM to that in its absence, Y0 and YM are the minimal and maximal values of Y, respectively, obtained following regression, and HS is the Hill slope of inhibition.

[1] = NSGM 100 µM, MMP-8 10 nM, pH 7.5, 37 °C

T1 sequence (P14780 107-444 limits assumed): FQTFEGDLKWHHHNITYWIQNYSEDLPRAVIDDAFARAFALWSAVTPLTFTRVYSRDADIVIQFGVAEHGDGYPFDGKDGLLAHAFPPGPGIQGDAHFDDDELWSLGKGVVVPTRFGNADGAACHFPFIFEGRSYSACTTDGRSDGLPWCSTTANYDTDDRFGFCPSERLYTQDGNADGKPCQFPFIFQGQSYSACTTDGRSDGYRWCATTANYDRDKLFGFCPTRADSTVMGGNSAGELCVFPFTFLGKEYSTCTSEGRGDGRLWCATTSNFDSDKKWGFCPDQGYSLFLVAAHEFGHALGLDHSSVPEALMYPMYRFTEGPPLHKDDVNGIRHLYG

Row | SMILES | inhibition at 100 µM (MMP-9) [%] | MMP-8 inhibition in library screen (result in words) (MMP-8; [1]) | MMP-8 inhibition in library screen (MMP-8; [1]) [%] | IC50 (MMP-8) [µM] | ΔY (efficacy of MMP-8 inhibition) (MMP-8) [%]
1 | CCOC(=O)c1c(C)oc2cc(OCC3CCCCC3)c(OCc3oc4cc(OCC5CCCCC5)c(OS(=O)(=O)O)cc4c3C(=O)OCC)cc12 [NSGM 29] | > 80 | did not inhibit MMP-8 | – | – | –
2 | O=c1c2ccccc2nc(-c2ccc(OS(=O)(=O)O)cc2)n1CCCCCCCCCn1cc(Cn2c(-c3ccc(OS(=O)(=O)O)cc3)nc3ccccc3c2=O)nn1 [NSGM 40] | – | – | > 80 | 25 ± 1 | 100 ± 2
3 | O=c1c2ccccc2nc(-c2ccc(OS(=O)(=O)O)cc2)n1CCCCCCCCCCn1cc(Cn2c(-c3ccc(OS(=O)(=O)O)cc3)nc3ccccc3c2=O)nn1 [NSGM 41] | – | – | > 80 | 15 ± 1 | 97 ± 2
4 | O=c1c2ccccc2nc(-c2ccc(OS(=O)(=O)O)cc2)n1CCCCCCCCCCCCn1cc(Cn2c(-c3ccc(OS(=O)(=O)O)cc3)nc3ccccc3c2=O)nn1 [NSGM 42] | – | – | > 80 | 34 ± 4 | 98 ± 8
